Measurements: patent publication US20220236187A1, “SYSTEM AND METHOD FOR REAL-TIME MULTICOLOR SHORTWAVE INFRARED FLUORESCENCE IMAGING” (HELMHOLTZ ZENTRUM MÜNCHEN - DEUTSCHES FORSCHUNGSZENTRUM FÜR …, priority 2019, published 2022)
Where two headings read alike, the source gives them in different places.

How the values were obtained:
[1] = Two-color SWIR lymphatic imaging of a narcotized mouse (Example 2, Demonstration III); type: in vivo; conditions: injected intradermally into footpads and base of tail; after 30 min, 40 min
Source text: The FIGS. 9A, 9B and 9C show merged frames representing the lymphatic system of a narcotized mouse in two-color real-time acquisition. With detector exposure time of 20 ms, a frame rate of 21 fps is achieved with the developed system. […] Then, Julo 7 micelles have been injected intravenously. The lymphatic functional imaging is later enhanced by the assignment of two distinct colors.
Light Source (785 nm laser & 1064 nm laser sequentially triggered, pulse length=21 ms)→Collimator→Mirror→1100 nm Short-pass Filter→Engineered Diffuser→Sample. The arrows represent the light path. Accordingly, the light path has been set up as follows: from Light Source (785 nm laser & 1064 nm laser sequentially triggered, pulse length=21 ms) to Collimator to Mirror to 1100 nm Short-pass Filter to Engineered Diffuser to Sample.
Sample→3xf=500 mm C-Coated lenses→Silver Mirror→1000 nm Long-pass Filter→2xf=200 mm C-coated lenses→InGaAs Detector. The arrows represent the light path. Accordingly, the light path has been set up as follows: from Sample to 3xf=500 mm C-Coated lenses to Silver Mirror to 1000 nm Long-pass Filter to 2xf=200 mm C-coated lenses to InGaAs Detector.
Sample: ICG (aqueous, 13 nmol intradermally [footpads and base of tail]) and Julo7 (micelles, 70 nmol intravenously).

[2] = Excitation-multiplexed SWIR imaging in mice, probe distribution (Example 9); type: in vivo; conditions: 80 minutes after i.p. 10 micelles and i.v. 3 micelles and ICG; top view
Source text: To perform excitation multiplexing in the SWIR, a custom SWIR imaging configuration with three lasers and an InGaAs detector was built (FIG. 13B). With laser lines at 785 nm, 980 nm, and 1064 nm, tailored excitation could uniquely excite three fluorophores. Emission is detected in a color-blind fashion using identical filters and settings in the SWIR, providing high-resolution images. To enable this process to occur in real-time, we constructed an electronic triggering system which is coupled to both the camera and laser excitation sources. […]
Physiological properties such as heart-rate, respiratory rate, thermoregulation, metabolism, and the function of the central nervous system, are highly impacted by anesthesia. […] Due to frame rates which are faster than macroscopic movements in animals, the heart rate and respiratory rate in awake animals can be quantified. […] The method allows physiology to be monitored with minimal perturbation of the animal's usual environment. […] The real-time collection can be visualized by observing close time-points in which a continuous movement is monitored without visual aberrations (FIG. 16A). In addition to assessing natural physiology, these tools foreshadow more complex experiments in which the location of multiple probes could be monitored over long periods of time, non-invasively and without the need for anesthesia. […]

[3] = Brightness comparison of micelle-formulated dyes and ICG in water, fetal bovine serum and sheep blood; type: physicochemical; conditions: dyes in micelles, ICG free
Source text: (§1) FIG. 21: Brightness comparisons in imaging configuration. a-c) Images upon 785 (33 mWcm^−2), 892 (54 mWcm^−2), and 968 (77 mWcm^−2) nm ex. and LP1000 nm detection (variable exposure time (ET) and frame rate) of capillaries containing equal moles of dyes 4-6, 9, 10 (lipid formulations) and benchmark dyes ICG (free) and MeOFlav7 (abbreviated MF7) (lipid formulation) when dissolved in water (a), fetal bovine serum (FBS) (b), or sheep blood (c). […] (e) and after injection of JuloChrom5 (10) (50 nmol) upon 982 nm (104 mWcm^−2) ex. (f). Collect: LP1000 nm, 2.0 ms ET, 150 fps (for 2-channel collection, see SI for images from all channels).
Next, to more closely approximate in vivo performance, each chromenylium or flavylium dye were formulated into water-soluble PEG-phospholipid micelles, a biocompatible nanomaterial for delivery. Brightness of solutions with equal dye concentration (flavylium and chromenylium dyes in micelles; ICG) were evaluated when dispersed in water (e.g., FIG. 20a), fetal bovine serum (FBS) (e.g., FIG. 20b), and sheep blood (e.g., FIG. 20c).
Results changed drastically compared to those in the organic solvent experiment, likely due to variable amounts of aggregation or interactions within the micelles and/or biological media. […]

[4] = In vivo brightness comparison of JuloChrom5 (10) and ICG in a single mouse; set-up: species or system mice; conditions: compared to the PEG-coated micelles
Source text: as §1
To most closely assess the brightness performance for SWIR imaging, an in vivo comparative experiment between the highest performing chromenylium dye, JuloChrom5 (10) and ICG was designed. To note, while many SWIR imaging agents have been compared to the benchmark dye, ICG, these comparisons are often difficult due to the diverse photophysical and biological properties of different emitters. In this case, the in vivo comparison is complicated by differing biodistribution properties of the two dyes. […] Normalizing each acquisition to the injection start time, the signal over time over the whole mouse (yellow), a section of the vasculature (red), and the liver (black) were quantified. […]

[5] = Brightness comparison in organic solvent in the excitation-multiplexed SWIR imaging configuration; type: physicochemical; conditions: 0.25 μM, 785/892/968 nm excitation, 1000 nm LP
Source text: While photophysical characterization can be essential for understanding chromophore properties, when moving to an in vivo system, there are many additional parameters that might contribute to a dye's performance, including delivery strategy, interaction with biological tissues, and the excitation and detection parameters of the imaging configuration. To begin to understand the translation to in vivo experiments, an excitation-multiplexed SWIR imaging configuration was used to compare emission of the fluorophores when excited at relevant wavelengths. The imaging set-up includes excitation lasers that correspond to each channel (e.g., i-iv, FIG. 17a) (785, 892, and 968, 1065 nm) with irradiation scaled to the approved values, as outlined by the International Commission on Non-Ionizing Radiation Protection (ICNIRP) guidelines. The guidelines indicate that within the spectral region of interest (˜785 nm-1065 nm) higher photon doses are tolerated as the wavelength is increased. […] The excitation lasers are diffused and delivered uniformly to the biological sample. […]
To compare brightness of the chromenylium dyes in vitro, dyes 5, 6, 9 and 10 were dissolved in organic solvent (DCM) at 0.25 μM, and measured the emission, with 1000 nm longpass (LP) filtering on an InGaAs camera upon sequential excitation with 785, 892, and 968 nm lasers. […]

[6] = stated as established property; cited from earlier work
[7] = value used as reference for relative measurements; cited from earlier work
[8] = value used as reference for relative measurements; cited from earlier work; remark: listed apart in the source

location of probe in awake mouse [2] | change of brightness in FBS and blood compared to water [3] | hepatic clearance time [4] | ranking of SWIR emission per excitation channel [5] | SMILES | conduction through the lymphatic vessels [1] | SWIR brightness in water, FBS and blood ([3]; equal dye concentration) | clearance of ICG [6] | ΦF of reference standard IR-26 [7] [%] | ΦF of reference standard IR-26 [8] [%]
exclusively in the liver | increase in brightness | faster hepatic clearance time | best performers in channels i and ii | CC1(C)C(/C=C/C=C/C=C/C=C2\N(CCCCS(=O)(=O)O)c3ccc4ccccc4c3C2(C)C)=[N+](CCCCS(=O)(=O)[O-])c2ccc3ccccc3c21 [ICG, indocyanine green] | efficiently conducted through the lymphatic vessels | brightest SWIR emitter upon 785 nm excitation in both FBS and blood | clears efficiently and exclusively from the liver |  | 
 |  |  |  | ClC1=C(/C=C/c2cc(-c3ccccc3)[s+]c3ccccc23)CCC/C1=C\C=C1/C=C(c2ccccc2)Sc2ccccc21.[O-][Cl+3]([O-])([O-])[O-] [IR-26] |  |  |  | 0.05 | 0.05
